Reference: article PMC8624998, “Synthesis and Antiproliferative Evaluation of 3-Chloroazetidin-2-ones with Antimitotic Activity: Heterocyclic Bridged Analogues of Combretastatin A-4” (Pharmaceuticals, 2021)
Like-named read-outs stand apart in the source and are kept apart here.

Columns and labels:
OVCAR-8 = assay: NCI-60 5 dose screen, Ovarian Cancer; format: cell-based; conditions: Homo sapiens
CCRF-CEM = assay: NCI-60 5 dose screen, leukaemia; format: cell-based; conditions: Homo sapiens
[1] = test system: microtubule network of MCF-7 cells; assay: Immunofluorescence (confocal) of microtubule network; format: cell-based, human; conditions: MCF-7, 16 h; 10n 0.05, 0.1, 0.5 μM; CA-4 10 nM; paclitaxel 1 μM
Description: Subsequently, the effect of the representative compound 10n on the organisation of microtubule cytoskeleton of MCF-7 cells was also determined by confocal microscopy using an anti-tubulin antibody (Figure 8). […] The MCF-7 cell nuclei (stained blue) were also clearly observed (Figure 8A). […] The treatment of MCF-7 breast cancer cells with CA-4 tubulin-targeting agents has been reported to result in the formation of multiple micronuclei and mitotic catastrophes.
Confocal microscopy was used to study the effects on MCF-7 cytoskeleton following treatment with compound 10n following the protocols previously reported. For each experiment, all images were collected on the same day using identical parameters. MCF-7 cells were seeded (1 × 10^5 cells/mL) on eight chamber glass slides. Cells were either untreated or treated with vehicle (1% ethanol (v/v)), CA-4 (10 nM), Paclitaxel (1 μM) and β-lactam compound 10n at 50 nM, 100 nM and 500 nM concentrations for 16 h. The cells were then gently washed in PBS and then fixed for 30 min with 100% ice-cold MeOH. Cells were washed three times in PBS for 10 min and then permeabilised in 0.5% Triton X-100. The cells were subsequently washed in PBS containing 0.1% Tween (PBST), and then blocked in bovine serum albumin (5%) diluted in PBST. Cells were then incubated with a mouse monoclonal anti-α-tubulin−FITC antibody (clone DM1A) (1:200) for 2 h at 20 °C. Following washes in PBST, cells were incubated with Alexa Fluor 488 dye (1:500) for 1 h at 20 °C. Following further washes in PBST, the cells were mounted in Ultra Cruz Mounting Media, which contained 4,6-diamino-2-phenolindol dihydrochloride (DAPI). The images were photographed using Leica SP8 confocal microscopy with the Leica application suite X software program. Experiments were performed on three independent occasions.
Figure 8 Compound 10n depolymerises the microtubule network of MCF-7 breast cancer cells. Cells were treated with (A) vehicle control ([…]), (B) CA-4 (10 nM), (C) paclitaxel (1 μM) and compound 10n, (D) (50 nM), (E) (100 nM) and (F) (500 nM) for 16 h. […]

[2] = test system: colchicine binding site of β-tubulin; assay: Colchicine binding-site (EBI) assay; format: cell-based, human; conditions: MCF-7, 10 μM for 2 h, then EBI 100 μM
Description: A colchicine-site binding assay was performed to evaluate the interaction of compound 10n at the colchicine binding site of tubulin using N,N-ethylenebis(iodoacetamide) (EBI). EBI crosslinks the Cys-239 and Cys-354 residues of the colchicine binding site of β-tubulin, alkylating the sulfhydryl group of cysteine. […] Microtubule targeting compounds binding at the colchicine site, e.g., colchicine and CA-4, prevent the formation of the β-tubulin-EBI adduct. […] Control samples (ethanol 0.1% (v/v)) indicated the formation of the β-tubulin-EBI adduct at a slightly lower position (Figure 9). […] These tubulin polymerisation inhibitors act on the colchicine site of tubulin and compete with EBI to bind the colchicine binding site and hinder the cross-linking of EBI with β-tubulin.
The assay was performed as we have previously reported. N,N′-Ethylene-bis(iodoacetamide) (EBI) (Santa Cruz Biotechnology) was dissolved in ethanol (100 μM). MCF-7 cells were seeded at a density of 5 × 10^4 cells/well in 6-well plates and incubated overnight. […]
Figure 9 Effects of compound 10n on the inhibition of the bisthioalkylation of Cys239 and Cys354 of β-tubulin by N,N′-ethylene-bis(iodoacetamide) (EBI) in MCF-7 cells. […] Cells were harvested, lysed and analysed using […] and Western blotting for β-tubulin and β-tubulin-EBI adducts. […]

MCF-7 cells = assay: Annexin V/PI apoptotic assay; conditions: for total apoptotic cells (Annexin V-stained positive cells): 48 h
Description: The Annexin V/Propidium Iodide (PI) assay was used to detect both early- and late-stage apoptosis using flow cytometry, as previously reported [34]. Early apoptosis is detected by the presence of phosphatidylserine (PS) on the outer surface of the cell membrane. […] Cells were then analysed using flow cytometry. […] Cells were washed in binding buffer and then re-suspended in PI-containing binding buffer (1:1000). Samples were analysed without delay using the BD Accuri flow cytometer and the data analysed with GraphPad Prism software.
MCF-7 breast cancer cells were treated with 10n (50 and 500 nM) or CA-4 (50 nM) or control vehicle (0.1% ethanol (v/v)). The percentage of apoptotic cells was determined by staining with Annexin V-FITC and propidium iodide (PI). […] Values represent the mean of three independent experiments.

ACHN = assay: NCI-60 5 dose screen, Renal Cancer; format: cell-based; conditions: Homo sapiens
[3] = Homo sapiens, MCF7, 48 h, read-out: Viable

Structure (SMILES) | effect on microtubule network [1] | β-tubulin-EBI adduct formation [2] | total apoptotic cells (Annexin V-stained positive cells) (MCF-7 cells; 50 nM) | viability at 0.05 µM (MCF-7 cells; [3]) | other results
CCSc1ccc(C2C(Br)C(=O)N2c2cc(OC)c(OC)c(OC)c2)cc1 (centres unmarked) [Compound 16d, 3-Bromo-4-(4-(ethylthio)phenyl)-1-(3,4,5-trimethoxyphenyl)azetidin-2-one] |  |  |  |  | GI50 (OVCAR-8): 403 nM; GI50 (CCRF-CEM): 278 nM
COc1ccc(/C=C\c2cc(OC)c(OC)c(OC)c2)cc1O [CA-4, Combretastatin A-4] | extensive depolymerisation of tubulin | Tubulin EBI adduct formation was inhibited | 34.6% | 61.8% | 
COc1ccc([C@H]2[C@H](Cl)C(=O)N2c2cc(OC)c(OC)c(OC)c2)cc1 (relative stereo) [Compound 10e trans, Trans-3-chloro-1-(3,4,5-trimethoxyphenyl)-4-(4-methoxyphenyl) azetidin-2-one] |  |  |  |  | GI50 (ACHN; read-out: GI50): 97.1 nM
COc1ccc(C2N(c3cc(OC)c(OC)c(OC)c3)C(=O)C2(Cl)Cl)cc1O (centres unmarked) [Compound 11n, 3,3-Dichloro-4-(3-hydroxy-4-methoxyphenyl)-1-(3,4,5-trimethoxyphenyl)azetidin-2-one] |  |  |  |  | GI50 (ACHN): 51.1 nM
COc1ccc(C2C(Cl)C(=O)N2c2cc(OC)c(OC)c(OC)c2)cc1O (centres unmarked) [Compound 10n, 3-Chloro-4-(3-hydroxy-4-methoxy-phenyl)-1-(3,4,5-trimethoxyphenyl)azetidin-2-one] | disorganised microtubule network | Tubulin EBI adduct formation was inhibited | 29.8% | 66.9% | total apoptotic cells (Annexin V-stained positive cells) (MCF-7 cells; 500 nM): 37%; viability at 0.5 µM (MCF-7 cells; [3]): 58.5%
